#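 How tested: cells in 96-well plates exposed to compound for 48 hours at five concentrations. TGI marks complete inhibition of growth.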
# Key:
# Experiment in all cases: NCI tumour cell line growth inhibition, 48 h
# [1] = system: HCT-116 colon
# [2] = system: MDA-N
# [3] = system: SF-295 CNS
# [4] = system: UACC-257 melanoma
# [5] = system: OVCAR-5 ovarian
# [6] = system: SK-MEL-5 melanoma
# [7] = system: OVCAR-8 ovarian
# [8] = system: PC-3 prostate
# [9] = system: HOP-92 NSCLC
# [10] = system: MOLT-4 leukemia
# [11] = system: A549 NSCLC
# [12] = system: OVCAR-3 ovarian
# [13] = system: OVCAR-4 ovarian
# [14] = system: SNB-75 CNS
# [15] = system: COLO 205 colon
# [16] = system: MDA-MB-435
# [17] = system: K-562 leukemia
# [18] = system: SN12C renal
# [19] = system: UO-31 renal
# [20] = system: NCI/ADR-RES ovarian
# [21] = system: HOP-62 NSCLC
# [22] = system: U251 CNS
# [23] = system: SK-MEL-28 melanoma
# [24] = system: MDA-MB-231 breast
# [25] = system: BT-549 breast
# [26] = system: NCI-H23 lung
# [27] = system: LOX IMVI melanoma
# [28] = system: SK-MEL-2 melanoma
# [29] = system: HCC-2998 colon
# [30] = system: SR leukemia
# [31] = system: IGROV1 ovarian
# [32] = system: HCT-15 colon
# [33] = system: ACHN renal
# [34] = system: KM12 colon
# [35] = system: UACC-62 melanoma
# [36] = system: HS 578T breast
# [37] = system: MCF7 breast
# [38] = system: RPMI-8226 leukemia
# [39] = system: M14 melanoma
# [40] = system: SK-OV-3 ovarian
# [41] = system: SW-620 colon
# [42] = system: 786-0 renal
# [43] = system: SF-268 CNS
# [44] = system: SNB-19 CNS
# [45] = system: NCI-H460 lung
# [46] = system: NCI-H522 lung
# [47] = system: T-47D breast
# [48] = system: CAKI-1 renal
# [49] = system: EKVX NSCLC
# [50] = system: DU-145 prostate
# [51] = system: TK-10 renal
# [52] = system: A498 renal
# [53] = system: MALME-3M melanoma
# [54] = system: HT29 colon
# [55] = system: CCRF-CEM leukemia
# [56] = system: NCI-H226 lung
# [57] = system: SF-539 CNS
structure (smiles),measurement,setting,value
O=C(Nc1ccc(Cl)cc1)/C(=C(/[O-])c1ccc(Br)cc1)[n+]1cccc(-c2ccc(Cl)cc2)n1,TGI,[1],13 µM
same,TGI,[2],> 100 µM
same,TGI,[3],11.2 µM
same,TGI,[4],> 100 µM
same,TGI,[5],21.7 µM
same,TGI,[6],> 100 µM
same,TGI,[7],14.2 µM
same,TGI,[8],> 100 µM
same,TGI,[9],> 100 µM
same,TGI,[10],> 100 µM
same,TGI,[11],> 100 µM
same,TGI,[12],12.9 µM
same,TGI,[13],29.4 µM
same,TGI,[14],26.1 µM
same,TGI,[15],> 100 µM
same,TGI,[16],25 µM
same,TGI,[17],> 100 µM
same,TGI,[18],8.44 µM
same,TGI,[19],42.6 µM
same,TGI,[20],31.6 µM
same,TGI,[21],29.2 µM
same,TGI,[22],> 100 µM
same,TGI,[23],71.1 µM
same,TGI,[24],> 100 µM
same,TGI,[25],9.35 µM
same,TGI,[26],9.04 µM
same,TGI,[27],> 100 µM
same,TGI,[28],12.3 µM
same,TGI,[29],24 µM
same,TGI,[30],> 100 µM
same,TGI,[31],14.8 µM
same,TGI,[32],51.7 µM
same,TGI,[33],46.1 µM
same,TGI,[34],9.86 µM
same,TGI,[35],22.8 µM
same,TGI,[36],9.65 µM
same,TGI,[37],3.28 µM
same,TGI,[38],> 100 µM
same,TGI,[39],18.5 µM
same,TGI,[40],33.7 µM
same,TGI,[41],> 100 µM
same,TGI,[42],14.3 µM
same,TGI,[43],19.5 µM
same,TGI,[44],> 100 µM
same,TGI,[45],16.5 µM
same,TGI,[46],6.83 µM
same,TGI,[47],5.14 µM
same,TGI,[48],6.66 µM
same,TGI,[49],19.3 µM
same,TGI,[50],> 100 µM
same,TGI,[51],67.8 µM
same,TGI,[52],> 100 µM
same,TGI,[53],11.3 µM
COc1ccc(-n2cnc3c(NCC(=O)O)ncnc32)cc1,TGI,[1],> 100 µM
same,TGI,[2],> 100 µM
same,TGI,[3],> 100 µM
same,TGI,[4],> 100 µM
same,TGI,[5],> 100 µM
same,TGI,[6],> 100 µM
same,TGI,[7],> 100 µM
same,TGI,[8],> 100 µM
same,TGI,[9],> 100 µM
same,TGI,[10],> 100 µM
same,TGI,[11],> 100 µM
same,TGI,[54],> 100 µM
same,TGI,[12],> 100 µM
same,TGI,[13],> 100 µM
same,TGI,[14],> 100 µM
same,TGI,[15],> 100 µM
same,TGI,[16],> 100 µM
same,TGI,[55],> 100 µM
same,TGI,[17],> 100 µM
same,TGI,[18],> 100 µM
same,TGI,[19],> 100 µM
same,TGI,[20],> 100 µM
same,TGI,[21],> 100 µM
same,TGI,[22],> 100 µM
same,TGI,[23],> 100 µM
same,TGI,[24],> 100 µM
same,TGI,[25],> 100 µM
same,TGI,[26],> 100 µM
same,TGI,[27],> 100 µM
same,TGI,[28],> 100 µM
same,TGI,[29],> 100 µM
same,TGI,[30],> 100 µM
same,TGI,[31],> 100 µM
same,TGI,[32],> 100 µM
same,TGI,[33],> 100 µM
same,TGI,[34],> 100 µM
same,TGI,[35],> 100 µM
same,TGI,[36],> 100 µM
same,TGI,[37],> 100 µM
same,TGI,[38],> 100 µM
same,TGI,[39],> 100 µM
same,TGI,[40],> 100 µM
same,TGI,[41],> 100 µM
same,TGI,[56],> 100 µM
same,TGI,[42],> 100 µM
same,TGI,[43],> 100 µM
same,TGI,[44],> 100 µM
same,TGI,[45],> 100 µM
same,TGI,[46],> 100 µM
same,TGI,[47],> 100 µM
same,TGI,[48],> 100 µM
same,TGI,[49],> 100 µM
same,TGI,[50],> 100 µM
same,TGI,[51],> 100 µM
same,TGI,[52],> 100 µM
same,TGI,[53],> 100 µM
OC(Cc1ccc2ccccc2n1)(C(F)(F)F)C(F)(F)F,TGI,[1],> 10 µM
same,TGI,[2],> 10 µM
same,TGI,[3],> 10 µM
same,TGI,[4],> 10 µM
same,TGI,[5],> 10 µM
same,TGI,[6],> 10 µM
same,TGI,[7],> 10 µM
same,TGI,[8],> 10 µM
same,TGI,[9],> 10 µM
same,TGI,[10],> 10 µM
same,TGI,[11],> 10 µM
same,TGI,[54],> 10 µM
same,TGI,[12],> 10 µM
same,TGI,[13],> 10 µM
same,TGI,[14],> 10 µM
same,TGI,[15],> 10 µM
same,TGI,[16],> 10 µM
same,TGI,[55],> 10 µM
same,TGI,[17],> 10 µM
same,TGI,[18],> 10 µM
same,TGI,[19],> 10 µM
same,TGI,[20],> 10 µM
same,TGI,[21],> 10 µM
same,TGI,[22],> 10 µM
same,TGI,[23],> 10 µM
same,TGI,[24],> 10 µM
same,TGI,[25],> 10 µM
same,TGI,[26],> 10 µM
same,TGI,[27],> 10 µM
same,TGI,[29],> 10 µM
same,TGI,[30],> 10 µM
same,TGI,[31],> 10 µM
same,TGI,[32],> 10 µM
same,TGI,[33],> 10 µM
same,TGI,[34],> 10 µM
same,TGI,[35],> 10 µM
same,TGI,[57],> 10 µM
same,TGI,[36],> 10 µM
same,TGI,[37],> 10 µM
same,TGI,[38],> 10 µM
same,TGI,[39],> 10 µM
same,TGI,[40],> 10 µM
same,TGI,[41],> 10 µM
same,TGI,[42],> 10 µM
same,TGI,[43],> 10 µM
same,TGI,[44],> 10 µM
same,TGI,[45],> 10 µM
same,TGI,[46],> 10 µM
same,TGI,[47],> 10 µM
same,TGI,[48],> 10 µM
same,TGI,[49],> 10 µM
same,TGI,[50],> 10 µM
same,TGI,[51],> 10 µM
same,TGI,[52],> 10 µM
same,TGI,[53],> 10 µM

# Reference: PubChem BioAssay (NCI)
